# Measurements published in patent publication US20260199377A1, “CANNABINOIDS FOR TREATING ESSENTIAL TREMOR IN PATIENTS” (Jazz Pharmaceuticals Research UK Limited, priority 2022, published 2026).
# Structures can show the parent of a compound that is named as a salt.
# Experiments:
# [1] = system: Harmaline-Induced Essential Tremor in Rats; assay: Harmaline-induced essential tremor in rats (observational score, Tremor Monitor waveforms); format: in vivo, rats (male; Sprague Dawley); settings: for tremor, as indexed by OS, TI, and MPP: overall conclusion, propranolol 20 mg/kg
# Protocol: Subjects: Naïve rats (114; male; Sprague Dawley; aged 6-9 weeks; weight 190-369 g) were obtained from Charles River UK and acclimated to the testing room in home cages (standard caging; housed in groups of 4) up to 7 days following arrival at the test facility, with free access to food (Certified Rodent CR 14% Protein Rodent Diet, LabDiet® 5CR4) and water on a 12 h/12 h light/dark cycle from arrival (lights on at 7:00 AM). All subjects were weighed at the beginning of the study and assigned to treatment groups.
# Tremor Monitor™ (“TM”): A TM from San Diego Instruments was obtained to measure movement waveforms (i.e., amplitude (“A”) (dBV) as a function of frequency (“f”) (Hz)) (threshold 10 dBV).
# NBX/Harmaline Experimental Group (number of subjects (“n”)=36 (12 at each dose of NBX)): Subjects were habituated to the TM for 2×5 minutes (with a 20 minute gap between the two 5 minute periods). The next day, 5.2, 10.4, or 20.8 mg/kg (total THC and CBD) NBX was administered p.o. (oral gavage) in sesame oil to the subjects at 2 mL/kg. 100 minutes after the NBX was administered, 10 mg/kg of harmaline was administered i.p. in water to the subjects at 5 mL/kg. 20, 40, and 60 minutes after the harmaline was administered to the subjects, the subjects were observationally scored in their home cages on a scale from 0 to 4 (wherein scores (“observational scores” (“OS”)) of 0, 1, 2, 3, and 4 correspond, as summarized in TABLE A below, to “No tremor”, “Occasional tremor affecting only head and neck”, “Intermittent tremor affecting whole body”, “Persistent tremor affecting whole body and tail”, and “Severe tremor rendering subject unable to stand”, respectively) and, immediately thereafter, movement waveforms of the subjects were measured with the TM for 5 minutes each.
# Thereafter, the administration of the harmaline and NBX (“acute treatment”) was continued once per day until the harmaline and NBX had been administered for 10 days (“sub-chronic treatment”). 20, 40, and 60 minutes after the final administration of the NBX and harmaline, the subjects were again observationally scored on the scale described (and summarized in TABLE A) above and movement waveforms of the subjects were again measured with the TM for 5 minutes each.
# Propranolol/Harmaline Comparison Group (n=12): The Experimental Group protocol was repeated, except for administering, instead of NBX, 20 mg/kg of propranolol i.p. 30 minutes before the harmaline was administered (as the maximum effect of propranolol can be observed approximately 30 minutes after administration).
# Vehicle/Harmaline Control Group (n=12): The Experimental Group protocol was repeated, except for administering, instead of NBX, sesame oil (vehicle) at 2 mL/kg.
# Calculations and Statistical Analysis: For each movement waveform measured, the following values were calculated: average amplitude (“A”) (average power) for the range of frequency (“f”) from
# Tremor Index (“TI”=AP2−AP1); and Motion Power Percentage (“MPP” (%)=AP2/(AP1+AP2)×100). Further, for each subject, the following values were calculated: total number of tremor events (10 dBV threshold; sum of 20-, 40-, and 60-minute data); total average length of one tremor event (average of 20-, 40-, and 60-minute data); and total cumulative time of tremor events (sum of 20-, 40-, and 60-minute data), wherein “total” refers to combination of the 20-minute data, the 40-minute data, and the 60-minute data (e.g., “total cumulative time of tremor events” means total of the cumulative time of tremor events for the 20-minute data, the cumulative time of tremor events for the 40-minute data, and the cumulative time of tremor events for the 60-minute data). For the 20-, 40-, and 60-minute data independently, OS, MPP, and TI were analyzed by Kruskal-Wallis followed by Dunn's multiple comparison test. […]
# [2] = system: rats; assay: Propranolol/Vehicle and NBX/Vehicle control groups (saline instead of harmaline), tremor measures; format: in vivo, rats (male; Sprague Dawley); settings: vs Vehicle/Vehicle group; for Tremor Index (TI) / observational score (OS): propranolol 20 mg/kg i.p. or NBX 5.2, 10.4, 20.8 mg/kg p.o.; for Motion Power Percentage (MPP): except for NBX at 20.8 mg/kg total THC and CBD at the 20 minute timepoint
# Protocol: Propranolol/Vehicle Control Group (n=12): The Propranolol/Harmaline Comparison Group protocol was repeated, except for administering, instead of harmaline, saline (vehicle) at 5 mL/kg.
# Vehicle/Vehicle Control Group (n=6): The Experimental Group protocol was repeated, except for administering, instead of NBX, sesame oil (vehicle) at 2 mL/kg, and, instead of harmaline, saline (vehicle) at 5 mL/kg.
# NBX/Vehicle Control Group (n=36 (12 at each dose)): The Experimental Group protocol was repeated, except for administering, instead of harmaline, saline (vehicle) at 5 mL/kg.
# Tremor Index (“TI”=AP2−AP1); and Motion Power Percentage (“MPP” (%)=AP2/(AP1+AP2)×100). Further, for each subject, the following values were calculated: total number of tremor events (10 dBV threshold; sum of 20-, 40-, and 60-minute data); total average length of one tremor event (average of 20-, 40-, and 60-minute data); and total cumulative time of tremor events (sum of 20-, 40-, and 60-minute data), wherein “total” refers to combination of the 20-minute data, the 40-minute data, and the 60-minute data (e.g., “total cumulative time of tremor events” means total of the cumulative time of tremor events for the 20-minute data, the cumulative time of tremor events for the 40-minute data, and the cumulative time of tremor events for the 60-minute data). For the 20-, 40-, and 60-minute data independently, OS, MPP, and TI were analyzed by Kruskal-Wallis followed by Dunn's multiple comparison test. For the 20-, 40-, and 60-minuted data combined, the total number of tremor events, total average length (duration) of one tremor event, and total cumulative time spent in tremor were analyzed by Kruskal-Wallis followed by a Tukey's multiple comparison test. Results were considered significant for p<0.05. Outlier removal was not applied due to non-responders in the harmaline group which could not be identified in the treatment groups.
# [3] = harmaline 10 mg/kg i.p., acute treatment, all timepoints, Vehicle/Harmaline vs Vehicle/Vehicle group
# [4] = harmaline 10 mg/kg i.p., acute treatment, sum of 20-, 40-, 60-minute data, Vehicle/Harmaline vs Vehicle/Vehicle group
# [5] = harmaline 10 mg/kg i.p., sub-chronic treatment, all timepoints, Vehicle/Harmaline vs Vehicle/Vehicle group
# [6] = harmaline 10 mg/kg i.p., sub-chronic treatment, sum of 20-, 40-, 60-minute data, Vehicle/Harmaline vs Vehicle/Vehicle group
# [7] = acute treatment, propranolol 20 mg/kg i.p., harmaline 10 mg/kg i.p., all timepoints (20, 40, 60 min), vs Vehicle/Harmaline group
# [8] = sub-chronic treatment (10 days), propranolol 20 mg/kg i.p., harmaline 10 mg/kg i.p., all timepoints, vs Vehicle/Harmaline group
# [9] = sub-chronic treatment, propranolol 20 mg/kg i.p., harmaline 10 mg/kg i.p., vs Vehicle/Harmaline group
compound,measurement,setting,value
"COc1ccc2c3c([nH]c2c1)C(C)=NCC3 [harmaline, Harmaline]",observational score (OS),"[1]; harmaline 10 mg/kg i.p., acute treatment, 20, 40 and 60 min post-dose, Vehicle/Harmaline vs Vehicle/Vehicle group",significantly increased
same,Motion Power Percentage (MPP),[1]; [3],significantly increased
same,Tremor Index (TI),[1]; [3],significantly increased
same,total average length of one tremor event,"[1]; harmaline 10 mg/kg i.p., acute treatment, average of 20-, 40-, 60-minute data, Vehicle/Harmaline vs Vehicle/Vehicle group",significantly increased
same,total cumulative time of tremor events,[1]; [4],significantly increased
same,total number of tremor events,[1]; [4],significantly increased
same,observational score (OS),"[1]; harmaline 10 mg/kg i.p., sub-chronic treatment, 20, 40 and 60 min post-dose, Vehicle/Harmaline vs Vehicle/Vehicle group",significantly increased
same,Motion Power Percentage (MPP),[1]; [5],significantly increased
same,Tremor Index (TI),[1]; [5],significantly increased
same,total average length of one tremor event,"[1]; harmaline 10 mg/kg i.p., sub-chronic treatment, average of 20-, 40-, 60-minute data, Vehicle/Harmaline vs Vehicle/Vehicle group",significantly increased
same,total cumulative time of tremor events,[1]; [6],significantly increased
same,total number of tremor events,[1]; [6],significantly increased
"CC(C)NCC(O)COc1cccc2ccccc12 (stereo not drawn) [propranolol, Propranolol hydrochloride]",observational score (OS),"[1]; acute treatment, propranolol 20 mg/kg i.p. 30 min before harmaline 10 mg/kg i.p., 20, 40 and 60 min post-dose, vs Vehicle/Harmaline group",significantly decreased
same,Motion Power Percentage (MPP),[1]; [7],significantly decreased
same,Tremor Index (TI),[1]; [7],significantly decreased
same,total number of tremor events,"[1]; acute treatment, propranolol 20 mg/kg i.p., harmaline 10 mg/kg i.p., vs Vehicle/Harmaline group, the only one of the three event measures significantly reduced",significantly reduced
same,"tremor, as indexed by OS, TI, and MPP",[1]; acutely,significantly reduced
same,"tremor, as indexed by OS, TI, and MPP",[1]; sub-chronically,significantly reduced
same,Motion Power Percentage (MPP),[1]; [8],significantly decreased
same,Tremor Index (TI),[1]; [8],significantly decreased
same,observational score (OS),"[1]; sub-chronic treatment (once daily, 10 days), propranolol 20 mg/kg i.p., harmaline 10 mg/kg i.p., 20, 40 and 60 min, vs Vehicle/Harmaline group",significantly decreased
same,total average length of one tremor event,[1]; [9],significantly reduced
same,total cumulative time of tremor events,[1]; [9],significantly reduced
same,total number of tremor events,[1]; [9],significantly reduced
same,Tremor Index (TI),[2]; acute treatment,no significant effect
same,observational score (OS),[2]; acute treatment,no significant effect
same,Motion Power Percentage (MPP),[2]; acute treatment,no significant effect
same,Tremor Index (TI),[2]; sub-chronic treatment,no significant effect
same,observational score (OS),[2]; sub-chronic treatment,no significant effect
same,Motion Power Percentage (MPP),[2]; sub-chronic treatment,no significant effect
